According to patent US20090298834A1, “4-(AMINOMETHYL)CYCLOHEXANAMINE DERIVATIVES AS CALCIUM CHANNEL BLOCKERS” (priority 2008, published 2009):

Key:
[1] = molecular target: T1, human α1G T-type channels (Homo sapiens, UniProt O43497); test: T-type calcium channel block, whole cell patch clamp (α1G); format: cell-based; conditions: HEK cells stably expressing human α1G; mainly non-inactivated protocol; values above 10 μM represented as 10 μM, values below 0.30 μM represented as 0.30 μM
T1 construct: expressed in transfected cells; host or cells: HEK 293
T1 sequence (O43497 whole entry): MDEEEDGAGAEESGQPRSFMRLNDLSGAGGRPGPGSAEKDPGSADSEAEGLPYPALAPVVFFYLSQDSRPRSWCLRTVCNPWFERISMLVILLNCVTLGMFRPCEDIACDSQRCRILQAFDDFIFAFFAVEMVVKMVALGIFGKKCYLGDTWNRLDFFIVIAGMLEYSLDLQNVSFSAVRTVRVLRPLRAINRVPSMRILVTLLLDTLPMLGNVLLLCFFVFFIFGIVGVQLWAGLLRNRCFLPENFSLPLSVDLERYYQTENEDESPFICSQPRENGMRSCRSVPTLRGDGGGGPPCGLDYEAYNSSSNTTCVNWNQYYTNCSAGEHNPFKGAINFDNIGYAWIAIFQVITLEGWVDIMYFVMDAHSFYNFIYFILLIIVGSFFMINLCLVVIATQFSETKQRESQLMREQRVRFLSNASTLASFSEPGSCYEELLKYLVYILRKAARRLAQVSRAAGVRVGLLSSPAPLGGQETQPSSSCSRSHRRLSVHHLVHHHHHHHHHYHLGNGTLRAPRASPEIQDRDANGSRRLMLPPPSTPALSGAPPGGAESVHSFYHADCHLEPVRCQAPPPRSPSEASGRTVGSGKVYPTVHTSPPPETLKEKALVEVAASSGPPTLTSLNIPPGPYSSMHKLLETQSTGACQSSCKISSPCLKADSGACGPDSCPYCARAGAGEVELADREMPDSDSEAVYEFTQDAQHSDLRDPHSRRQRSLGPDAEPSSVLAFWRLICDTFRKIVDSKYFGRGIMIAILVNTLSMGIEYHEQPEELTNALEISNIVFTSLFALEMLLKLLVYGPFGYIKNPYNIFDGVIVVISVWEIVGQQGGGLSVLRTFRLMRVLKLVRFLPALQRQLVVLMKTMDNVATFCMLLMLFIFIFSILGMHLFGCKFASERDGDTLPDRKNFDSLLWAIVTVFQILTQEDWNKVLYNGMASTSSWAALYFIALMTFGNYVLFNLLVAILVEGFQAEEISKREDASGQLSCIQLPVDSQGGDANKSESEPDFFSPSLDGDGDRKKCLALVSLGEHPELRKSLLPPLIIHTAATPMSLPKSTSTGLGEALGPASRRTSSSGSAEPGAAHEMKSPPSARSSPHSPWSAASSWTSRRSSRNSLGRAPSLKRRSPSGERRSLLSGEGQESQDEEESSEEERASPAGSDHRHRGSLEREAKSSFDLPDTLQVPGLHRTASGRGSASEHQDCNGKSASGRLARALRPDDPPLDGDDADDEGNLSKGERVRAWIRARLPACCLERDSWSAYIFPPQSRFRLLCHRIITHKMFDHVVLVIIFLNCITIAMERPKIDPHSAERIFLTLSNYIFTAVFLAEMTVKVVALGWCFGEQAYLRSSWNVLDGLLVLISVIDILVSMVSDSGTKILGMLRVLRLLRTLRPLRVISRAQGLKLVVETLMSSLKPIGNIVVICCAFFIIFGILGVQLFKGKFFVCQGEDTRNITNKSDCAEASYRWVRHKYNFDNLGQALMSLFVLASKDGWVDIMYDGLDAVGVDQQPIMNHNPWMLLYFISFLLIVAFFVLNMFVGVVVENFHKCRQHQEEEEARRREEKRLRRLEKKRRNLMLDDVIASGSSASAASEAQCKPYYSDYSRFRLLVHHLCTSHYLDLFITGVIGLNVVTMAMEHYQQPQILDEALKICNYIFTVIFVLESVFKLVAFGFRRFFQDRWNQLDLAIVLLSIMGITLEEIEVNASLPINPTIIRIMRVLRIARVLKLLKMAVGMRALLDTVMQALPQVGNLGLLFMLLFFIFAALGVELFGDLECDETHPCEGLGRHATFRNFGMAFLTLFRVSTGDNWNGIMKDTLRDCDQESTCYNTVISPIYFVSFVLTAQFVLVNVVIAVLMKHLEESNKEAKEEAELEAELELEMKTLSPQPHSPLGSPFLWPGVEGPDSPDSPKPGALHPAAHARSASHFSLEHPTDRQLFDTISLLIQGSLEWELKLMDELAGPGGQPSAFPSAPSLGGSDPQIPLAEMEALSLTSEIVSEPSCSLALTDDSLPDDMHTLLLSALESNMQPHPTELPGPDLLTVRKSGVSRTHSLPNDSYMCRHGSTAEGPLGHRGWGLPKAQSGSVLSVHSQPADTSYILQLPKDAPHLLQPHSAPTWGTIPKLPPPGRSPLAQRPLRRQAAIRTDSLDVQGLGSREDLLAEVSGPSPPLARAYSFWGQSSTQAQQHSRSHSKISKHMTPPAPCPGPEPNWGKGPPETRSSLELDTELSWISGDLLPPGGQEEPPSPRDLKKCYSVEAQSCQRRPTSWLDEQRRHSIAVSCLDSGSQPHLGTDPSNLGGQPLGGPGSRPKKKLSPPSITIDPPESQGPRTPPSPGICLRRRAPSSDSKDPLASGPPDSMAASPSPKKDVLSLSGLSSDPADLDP
Experimental: (§1) T-type calcium channel blocking activity was assayed in human embryonic kidney cells, HEK 293, stably transfected with the T-type calcium channel subunits. Briefly, cells were cultured in Dulbecco's modified eagle medium (DMEM) supplemented with 10% fetal bovine serum, 200 U/ml penicillin and 0.2 mg/ml streptomycin at 37° C. with 5% CO2. At 85% confluency cells were split with 0.25% trypsin/1 mM EDTA and plated at 10% confluency on glass coverslips. At 12 hours the medium was replaced and the cells stably transfected using a standard calcium phosphate protocol and the appropriate calcium channel cDNA's. Fresh DMEM was supplied and the cells transferred to 28° C./5% CO2. Cells were incubated for 1 to 2 days prior to whole cell recording.
(§2) Standard patch-clamp techniques were employed to identify blockers of T-type currents. Briefly, previously described HEK cell lines stably expressing human α1G, α1H and α1I T-type channels were used for all the recordings (passage #: 4-20, 37° C., 5% CO2). Whole cell patch clamp experiments were performed using an Axopatch 200B amplifier (Axon Instruments, Burlingame, Calif.) linked to a personal computer equipped with pCLAMP software. Data were analyzed using Clampfit (Axon Instruments) and SigmaPlot 4.0 (Jandel Scientific). To obtain T-type currents, plastic dishes containing semi-confluent cells were positioned on the stage of a ZEISS AXIOVERT S100 microscope after replacing the culture medium with external solution (see below). Whole-cell patches were obtained using pipettes (borosilicate glass with filament, O.D.: 1.5 mm, I.D.: 0.86 mm, 10 cm length), fabricated on a SUTTER P-97 puller with resistance values of ˜5 MΩ (see below for internal solution).
(§3) In the non-inactivating protocol, the holding potential is set at −110 mV and with a pre-pulse at −100 mV for 1 second prior to the test pulse at −40 mV for 50 ms. In the inactivation protocol, the pre-pulse is at approximately −85 mV for 1 second, which inactivates about 15% of the T-type channels.
(§4) Test compounds were dissolved in external solution, 0.1-0.01% DMSO. After 10 min rest, they were applied by gravity close to the cell using a WPI microfil tubing. The “non-inactivated” pre-pulse was used to examine the resting block of a compound. The “inactivated” protocol was employed to study voltage-dependent block. However, the initial data shown below were mainly obtained using the non-inactivated protocol only. . IC50 values are shown for various compounds of the invention in Table 4 for the drug of interest. Values are shown in μM and values above 10 μM are simply represented as 10 μM.

[2] = molecular target: T2, human α1H T-type channels (Homo sapiens, UniProt O95180); test: T-type calcium channel block, whole cell patch clamp (α1H); format: cell-based; conditions: HEK cells stably expressing human α1H; mainly non-inactivated protocol; values above 10 μM represented as 10 μM
T2 construct: expressed in transfected cells; host or cells: HEK 293
T2 sequence (O95180 whole entry): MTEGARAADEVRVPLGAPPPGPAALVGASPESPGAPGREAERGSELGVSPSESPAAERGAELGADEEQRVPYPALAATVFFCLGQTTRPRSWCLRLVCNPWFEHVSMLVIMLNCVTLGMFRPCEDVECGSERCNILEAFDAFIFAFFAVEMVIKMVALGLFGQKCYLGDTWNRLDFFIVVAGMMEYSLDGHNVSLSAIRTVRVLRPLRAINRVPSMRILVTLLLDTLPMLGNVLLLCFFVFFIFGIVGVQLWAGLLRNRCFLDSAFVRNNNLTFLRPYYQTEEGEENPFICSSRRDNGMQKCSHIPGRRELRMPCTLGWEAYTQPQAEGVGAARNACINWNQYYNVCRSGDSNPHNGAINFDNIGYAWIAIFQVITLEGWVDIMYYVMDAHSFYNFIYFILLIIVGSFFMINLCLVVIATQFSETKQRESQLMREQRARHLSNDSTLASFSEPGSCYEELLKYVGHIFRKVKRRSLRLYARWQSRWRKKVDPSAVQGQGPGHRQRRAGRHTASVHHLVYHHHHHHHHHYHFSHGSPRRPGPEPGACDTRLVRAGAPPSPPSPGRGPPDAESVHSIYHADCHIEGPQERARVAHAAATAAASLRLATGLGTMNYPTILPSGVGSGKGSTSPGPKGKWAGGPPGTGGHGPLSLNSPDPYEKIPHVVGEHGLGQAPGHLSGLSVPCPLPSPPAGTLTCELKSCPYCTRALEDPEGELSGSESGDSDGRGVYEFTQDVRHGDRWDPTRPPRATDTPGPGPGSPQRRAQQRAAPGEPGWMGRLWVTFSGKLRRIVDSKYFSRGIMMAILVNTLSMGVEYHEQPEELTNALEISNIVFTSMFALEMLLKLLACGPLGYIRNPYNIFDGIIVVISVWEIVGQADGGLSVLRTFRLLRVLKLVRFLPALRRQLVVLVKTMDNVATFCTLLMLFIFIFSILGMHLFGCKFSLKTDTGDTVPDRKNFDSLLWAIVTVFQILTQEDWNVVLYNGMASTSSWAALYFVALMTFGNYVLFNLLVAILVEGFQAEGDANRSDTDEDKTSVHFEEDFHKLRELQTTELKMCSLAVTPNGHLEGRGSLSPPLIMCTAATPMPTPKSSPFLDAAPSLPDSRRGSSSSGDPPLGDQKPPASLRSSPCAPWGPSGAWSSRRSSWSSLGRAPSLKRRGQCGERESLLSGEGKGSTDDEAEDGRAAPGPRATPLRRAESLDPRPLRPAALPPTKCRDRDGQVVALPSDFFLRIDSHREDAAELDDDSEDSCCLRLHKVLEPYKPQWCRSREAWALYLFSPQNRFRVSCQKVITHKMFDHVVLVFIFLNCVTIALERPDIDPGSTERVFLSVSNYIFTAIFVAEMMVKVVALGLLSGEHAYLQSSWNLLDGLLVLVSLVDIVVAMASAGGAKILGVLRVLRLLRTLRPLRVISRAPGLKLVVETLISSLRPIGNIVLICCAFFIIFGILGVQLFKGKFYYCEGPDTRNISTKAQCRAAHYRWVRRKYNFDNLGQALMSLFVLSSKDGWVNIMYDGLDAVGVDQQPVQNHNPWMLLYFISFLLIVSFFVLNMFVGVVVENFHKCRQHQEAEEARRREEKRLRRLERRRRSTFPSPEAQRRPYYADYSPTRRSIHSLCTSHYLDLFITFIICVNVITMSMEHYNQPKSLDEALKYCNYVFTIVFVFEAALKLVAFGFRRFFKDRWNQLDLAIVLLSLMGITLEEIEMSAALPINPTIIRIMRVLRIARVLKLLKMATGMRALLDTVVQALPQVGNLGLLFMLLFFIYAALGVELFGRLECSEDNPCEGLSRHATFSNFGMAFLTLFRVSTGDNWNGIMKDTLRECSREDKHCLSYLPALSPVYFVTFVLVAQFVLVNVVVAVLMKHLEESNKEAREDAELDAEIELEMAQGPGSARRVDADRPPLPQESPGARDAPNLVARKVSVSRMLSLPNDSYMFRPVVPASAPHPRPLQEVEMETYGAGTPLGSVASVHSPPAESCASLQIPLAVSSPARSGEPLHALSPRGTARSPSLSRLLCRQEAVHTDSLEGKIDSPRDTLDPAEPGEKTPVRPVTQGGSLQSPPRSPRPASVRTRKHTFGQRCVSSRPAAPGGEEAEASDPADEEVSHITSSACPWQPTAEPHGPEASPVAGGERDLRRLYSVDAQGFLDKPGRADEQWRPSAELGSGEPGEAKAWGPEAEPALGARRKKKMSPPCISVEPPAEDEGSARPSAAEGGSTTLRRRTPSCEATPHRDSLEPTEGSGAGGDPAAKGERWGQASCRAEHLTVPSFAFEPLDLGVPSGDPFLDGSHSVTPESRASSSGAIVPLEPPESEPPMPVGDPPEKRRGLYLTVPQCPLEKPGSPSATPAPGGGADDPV
Experimental: as §1, §2, §3, §4

Row | IC50 [1] [nM] | IC50 [2] [nM] | Compound
1 | 450 | 1530 | CC(C)(C)[C@H](O)C(=O)NC1CCC(CC(=O)Nc2cc(C(F)(F)F)cc(C(F)(F)F)c2)CC1 (stereo in doubt) [Compound 108, (S)-N-((trans)-4-(2-(3,5-bis(trifluoromethyl)phenylamino)-2-oxoethyl)cyclohexyl)-2-hydroxy-3,3-dimethylbutanamide]
2 | 390 | 580 | CC(C)(C)C(O)CN[C@H]1CC[C@@H](CNC(=O)c2cc(C(F)(F)F)cc(C(F)(F)F)c2)CC1 (stereo partly shown) [Compound 1]
3 | 450 | 550 | CC(C)(C)C(O)CN[C@H]1CC[C@@H](CNC(=O)c2cc(F)cc(C(F)(F)F)c2)CC1 (stereo partly drawn) [Compound 2, 3-fluoro-N-((cis-4-(2-hydroxy-3,3-dimethylbutylamino)cyclohexyl)methyl)-5-(trifluoromethyl)benzamide]
4 | 470 | 1020 | CC(C)(C)C(O)CN[C@H]1CC[C@H](CNC(=O)c2cc(C(F)(F)F)cc(C(F)(F)F)c2)CC1 (stereo partly drawn) [Compound 3, N-((trans-4-(2-hydroxy-3,3-dimethylbutylamino)cyclohexyl)methyl)-3,5-bis(trifluoromethyl)benzamide]
5 | 4540 | 4430 | CC(C)(O)CN[C@H]1CC[C@H](CNC(=O)c2cc(C(F)(F)F)cc(C(F)(F)F)c2)CC1 [Compound 4, N-((trans-4-(2-hydroxy-2-methylpropylamino)cyclohexyl)methyl)-3,5-bis(trifluoromethyl)benzamide]
6 | ≤ 300 | 1540 | O=C(NC[C@H]1CC[C@@H](NCc2ccccc2O)CC1)c1cc(C(F)(F)F)cc(C(F)(F)F)c1 [Compound 7, N-((cis-4-(2-hydroxybenzylamino)cyclohexyl)methyl)-3,5-bis(trifluoromethyl)benzamide]
7 | 3350 | 4840 | O=C(NC[C@H]1CC[C@@H](NCc2cccnc2F)CC1)c1cc(C(F)(F)F)cc(C(F)(F)F)c1 [Compound 8, N-((cis-4-((2-fluoropyridin-3-yl)methylamino)cyclohexyl)methyl)-3,5-bis(trifluoromethyl)benzamide]
8 | 850 | 710 | Cc1cccc(CN[C@H]2CC[C@@H](CNC(=O)c3cc(C(F)(F)F)cc(C(F)(F)F)c3)CC2)c1O [Compound 9, N-((cis-4-(2-hydroxy-3-methylbenzylamino)cyclohexyl)methyl)-3,5-bis(trifluoromethyl)benzamide]
9 | 470 | 320 | COc1ccccc1CN[C@H]1CC[C@@H](CNC(=O)c2cc(C(F)(F)F)cc(C(F)(F)F)c2)CC1 [Compound 10, N-((cis-4-(2-methoxybenzylamino)cyclohexyl)methyl)-3,5-bis(trifluoromethyl)benzamide]
10 | 1570 | 2330 | COc1cccnc1CN[C@H]1CC[C@@H](CNC(=O)c2cc(C(F)(F)F)cc(C(F)(F)F)c2)CC1 [Compound 11, N-((cis-4-((3-methoxypyridin-2-yl)methylamino)cyclohexyl)methyl)-3,5-bis(trifluoromethyl)benzamide]
11 | 460 | 2830 | O=C(NC[C@H]1CC[C@@H](NCc2c(F)cccc2Cl)CC1)c1cc(C(F)(F)F)cc(C(F)(F)F)c1 [Compound 13, N-((cis-4-(2-chloro-6-fluorobenzylamino)cyclohexyl)methyl)-3,5-bis(trifluoromethyl)benzamide]
12 | ≤ 300 | 560 | COc1ccc(CN[C@H]2CC[C@@H](CNC(=O)c3cc(C(F)(F)F)cc(C(F)(F)F)c3)CC2)c(OC)c1 [Compound 14, N-((cis-4-(2,4-dimethoxybenzylamino)cyclohexyl)methyl)-3,5-bis(trifluoromethyl)benzamide]
13 | 780 | 1650 | O=C(NC[C@H]1CC[C@@H](NCc2ccccc2O)CC1)c1cc(F)cc(C(F)(F)F)c1 [Compound 15, 3-fluoro-N-((cis-4-(2-hydroxybenzylamino)cyclohexyl)methyl)-5-(trifluoromethyl)benzamide]
14 | 4440 | ≥ 10000 | O=C(NC[C@H]1CC[C@@H](NCc2ncccc2O)CC1)c1cc(F)cc(C(F)(F)F)c1 [Compound 16, 3-fluoro-N-((cis-4-((3-hydroxypyridin-2-yl)methylamino)cyclohexyl)methyl)-5-(trifluoromethyl)benzamide]
15 | 7730 | 4940 | O=C(NC[C@H]1CC[C@@H](NCc2cccnc2F)CC1)c1cc(F)cc(C(F)(F)F)c1 [Compound 17, 3-fluoro-N-((cis-4-((2-fluoropyridin-3-yl)methylamino)cyclohexyl)methyl)-5-(trifluoromethyl)benzamide]
16 | 460 | 1370 | Cc1cccc(CN[C@H]2CC[C@@H](CNC(=O)c3cc(F)cc(C(F)(F)F)c3)CC2)c1O [Compound 18, 3-fluoro-N-((cis-4-(2-hydroxy-3-methylbenzylamino)cyclohexyl)methyl)-5-(trifluoromethyl)benzamide]
17 | 530 | 1010 | COc1ccccc1CN[C@H]1CC[C@@H](CNC(=O)c2cc(F)cc(C(F)(F)F)c2)CC1 [Compound 19, 3-fluoro-N-((cis-4-(2-methoxybenzylamino)cyclohexyl)methyl)-5-(trifluoromethyl)benzamide]
18 | 3320 | 5350 | COc1cccnc1CN[C@H]1CC[C@@H](CNC(=O)c2cc(F)cc(C(F)(F)F)c2)CC1 [Compound 20, 3-fluoro-N-((cis-4-((3-methoxypyridin-2-yl)methylamino)cyclohexyl)methyl)-5-(trifluoromethyl)benzamide]
19 | 840 | 4580 | O=C(NC[C@H]1CC[C@@H](NCc2cccc(F)c2O)CC1)c1cc(F)cc(C(F)(F)F)c1 [Compound 21, 3-fluoro-N-((cis-4-(3-fluoro-2-hydroxybenzylamino)cyclohexyl)methyl)-5-(trifluoromethyl)benzamide]
20 | 990 | 3080 | O=C(NC[C@H]1CC[C@@H](NCc2c(O)cccc2F)CC1)c1cc(F)cc(C(F)(F)F)c1 [Compound 22, 3-fluoro-N-((cis-4-(2-fluoro-6-hydroxybenzylamino)cyclohexyl)methyl)-5-(trifluoromethyl)benzamide]
21 | 910 | 2870 | O=C(NC[C@H]1CC[C@@H](NCc2c(F)cccc2Cl)CC1)c1cc(F)cc(C(F)(F)F)c1 [Compound 23, N-((cis-4-(2-chloro-6-fluorobenzylamino)cyclohexyl)methyl)-3-fluoro-5-(trifluoromethyl)benzamide]
22 | 340 | 590 | COc1ccc(CN[C@H]2CC[C@@H](CNC(=O)c3cc(F)cc(C(F)(F)F)c3)CC2)c(OC)c1 [Compound 24, N-((cis-4-(2,4-dimethoxybenzylamino)cyclohexyl)methyl)-3-fluoro-5-(trifluoromethyl)benzamide]
23 | ≤ 300 | 2450 | O=C(NC[C@H]1CC[C@H](NCc2ccccc2O)CC1)c1cc(C(F)(F)F)cc(C(F)(F)F)c1 [Compound 25, N-((trans-4-(2-hydroxybenzylamino)cyclohexyl)methyl)-3,5-bis(trifluoromethyl)benzamide]
24 | 1970 | 9760 | O=C(NC[C@H]1CC[C@H](NCc2cccnc2F)CC1)c1cc(C(F)(F)F)cc(C(F)(F)F)c1 [Compound 27, N-((trans-4-((2-fluoropyridin-3-yl)methylamino)cyclohexyl)methyl)-3,5-bis(trifluoromethyl)benzamide]
25 | ≤ 300 | 800 | COc1ccccc1CN[C@H]1CC[C@H](CNC(=O)c2cc(C(F)(F)F)cc(C(F)(F)F)c2)CC1 [Compound 29, N-((trans-4-(2-methoxybenzylamino)cyclohexyl)methyl)-3,5-bis(trifluoromethyl)benzamide]
26 |  | 2080 | O=C(CC1CC1)NCCN[C@H]1CC[C@H](CNC(=O)c2cc(C(F)(F)F)cc(C(F)(F)F)c2)CC1 [Compound 103, N-((trans-4-(2-(2-cyclopropylacetamido)ethylamino)cyclohexyl)methyl)-3,5-bis(trifluoromethyl)benzamide]
27 |  | 6160 | O=C(NC[C@H]1CC[C@@H](N2CC(C(F)(F)F)(C(F)(F)F)OC2=O)CC1)c1cc(F)cc(C(F)(F)F)c1 [Compound 154, 3-fluoro-N-((cis-4-(2-oxo-5,5-bis(trifluoromethyl)oxazolidin-3-yl)cyclohexyl)methyl)-5-(trifluoromethyl)benzamide]
